The values that follow are results of earlier work, collected in PubChem BioAssay AID1259409 (Chemical Carcinogenesis Research Information System (CCRIS), 2018).

The test system of the series is rodent chemically induced tumor inhibition, incidence and multiplicity. The series is described as follows: CCRIS tumor inhibitor studies. Particulars: for tumour outcome (control, treated, inhibition, significance): Carcinogen: 7,12-DIMETHYLBENZ[A]ANTHRACENE, 57-97-6.

Several values for one entry are separate records, joined by “and”; a condition that tells them apart may be missing. Equal entries are not always repeated.

Consider `COc1ccc2c(c1)c(CC(=O)O)c(C)n2C(=O)c1ccc(Cl)cc1`, for which the outcome runs as follows: (Carcinogen: 4-HYDROXYBUTYL(BUTYL)NITROSAMINE [3817-11-6], Dose [Inhibitor]: 20 MG/KG IN DIET 1 WK BEFORE CARCINOGEN (STUDY DURATION: 32 WK), Route [Inhibitor]: DIET, Species: MOUSE, Strain/Sex: B6D2F1/MALE, Target Tissue: Type of Lesion: BLADDER: CARCINOMA, Dose [Carcinogen]: 7.5 MG/WK FOR 12 WK) 32, 3, 91%; (Carcinogen: 4-HYDROXYBUTYL(BUTYL)NITROSAMINE [3817-11-6], Dose [Inhibitor]: 20 MG/KG IN DIET 20 WK AFTER LAST CARCINOGEN DOSE (STUDY DURATION: 61 WK), Route [Inhibitor]: DIET, Species: MOUSE, Strain/Sex: B6D2F1/MALE, Target Tissue: Type of Lesion: BLADDER: CARCINOMA, Dose [Carcinogen]: 7.5 MG/WK FOR 12 WK) 66, 42, 36%; (Carcinogen: 4-HYDROXYBUTYL(BUTYL)NITROSAMINE [3817-11-6], Dose [Inhibitor]: 20 MG/KG IN DIET FOR 30 WK AT 1 WK AFTER LAST CARCINOGEN TREATMENT (STUDY DURATION: 42 WK), Route [Inhibitor]: DIET, Species: MOUSE, Strain/Sex: B6D2F1/MALE, Target Tissue: Type of Lesion: BLADDER: CARCINOMA, Dose [Carcinogen]: 7.5 MG/WK FOR 12 WK) 31, 7, 77%; (Carcinogen: ACETOXYMETHYL(METHYLNITROSAMINE), 56856-83-8, Dose [Inhibitor]: 0, 0.001% IN DRINKING WATER FOR 10 WK ADMINISTERED CONCURRENTLY WITH CARCINOGEN TREATMENT (STUDY DURATION: 31 WK), Route [Inhibitor]: ORAL, Species: RAT, Strain/Sex: SPRAGUE-DAWLEY/MALE, Target Tissue: Type of Lesion: LARGE BOWEL: TUMORS, Dose [Carcinogen]: 2 MG/KG BW 1/WK FOR 10 WK, Promoter: NONE USED) 28/29 (97%), 30/30 (100%), -3%, not significant at 21 wk; 20/20 (100%), 17/17 (1; (Carcinogen: ACETOXYMETHYL(METHYLNITROSAMINE), 56856-83-8, Dose [Inhibitor]: 0, 0.001% IN DRINKING WATER FOR 10 WK BEGINNING POST CARCINOGEN TREATMENT (STUDY DURATION: 31 WK), Route [Inhibitor]: ORAL, Species: RAT, Strain/Sex: SPRAGUE-DAWLEY/MALE, Target Tissue: Type of Lesion: LARGE BOWEL: TUMORS, Dose [Carcinogen]: 2 MG/KG BW 1/WK FOR 10 WK, Promoter: NONE USED) 28/29 (97%), 29/29 (100%), -3%, not significant at 21 wk; 20/20 (100%), 18/18 (1; (Carcinogen: ACETOXYMETHYL(METHYLNITROSAMINE), 56856-83-8, Dose [Inhibitor]: 0, 0.001% IN DRINKING WATER FOR 20 WK ADMINISTERED CONCURRENTLY WITH CARCINOGEN TREATMENT AND CONTINUED FOR 10 WK POST C, Route [Inhibitor]: ORAL, Species: RAT, Strain/Sex: SPRAGUE-DAWLEY/MALE, Target Tissue: Type of Lesion: LARGE BOWEL: TUMORS, Dose [Carcinogen]: 2 MG/KG BW 1/WK FOR 10 WK, Promoter: NONE USED) 28/29 (97%), 27/30 (90%), 7%, not significant at 21 wk; 20/20 (100%), 20/20 (100. For the same compound, the “tumour outcome (control, treated, inhibition, significance)” value reads like this: (Dose [Inhibitor]: 0, 0.004% IN 20% FAT DIET CONTAINING 0.5% LINOLEIC ACID BEGINNING 7 D POST CARCINOGEN DOSE AND CONTINUING FOR DURATION O, Route [Inhibitor]: ORAL, Species: RAT, Strain/Sex: SPRAGUE-DAWLEY/FEMALE, Target Tissue: Type of Lesion: MAMMARY GLAND: ADENOCARCINOMA, Dose [Carcinogen]: 5 MG AT 50-53 DAYS OF AGE, Promoter: NONE USED) 56%, 62%, -11%, not calculated; (Dose [Inhibitor]: 0, 0.004% IN 20% FAT DIET CONTAINING 4% LINOLEIC ACID BEGINNING 7 D POST CARCINOGEN DOSE AND CONTINUING FOR DURATION OF, Route [Inhibitor]: ORAL, Species: RAT, Strain/Sex: SPRAGUE-DAWLEY/FEMALE, Target Tissue: Type of Lesion: MAMMARY GLAND: ADENOCARCINOMA, Dose [Carcinogen]: 5 MG AT 50-53 DAYS OF AGE, Promoter: NONE USED) 53%, 39%, 26%, not calculated; (Dose [Inhibitor]: 0, 0.004% IN 20% FAT DIET CONTAINING 12% LINOLEIC ACID BEGINNING 7 D POST CARCINOGEN DOSE AND CONTINUING FOR DURATION OF, Route [Inhibitor]: ORAL, Species: RAT, Strain/Sex: SPRAGUE-DAWLEY/FEMALE, Target Tissue: Type of Lesion: MAMMARY GLAND: ADENOCARCINOMA, Dose [Carcinogen]: 5 MG AT 50-53 DAYS OF AGE, Promoter: NONE USED) 69%, 50%, 28%, not calculated; (Dose [Inhibitor]: 0, 0.005% IN HIGH-FAT (20% CORN OIL) DIET BEGINNING 7 D POST CARCINOGEN DOSE (STUDY DURATION: 20 WK), Route [Inhibitor]: ORAL, Species: RAT, Strain/Sex: SPRAGUE-DAWLEY/FEMALE, Target Tissue: Type of Lesion: MAMMARY GLAND: ADENOCARCINOMA, Dose [Carcinogen]: 5 MG ONCE, Promoter: NONE USED) 26/32 (81%), 10/33 (30%), 63%, not calculated; (Dose [Inhibitor]: 0, 0.005% IN HIGH-FAT DIET BEGINNING 7 D POST CARCINOGEN TREATMENT (STUDY DURATION: 48 WK), Route [Inhibitor]: ORAL, Species: RAT, Strain/Sex: SPRAGUE-DAWLEY/FEMALE, Target Tissue: Type of Lesion: MAMMARY GLAND: ADENOCARCINOMA, Dose [Carcinogen]: 5 MG ONCE AT 50 D OF AGE, Promoter: NONE USED) 93%, 47%, 49%, p<0.01; (Dose [Inhibitor]: 0, 0.005% IN LOW-FAT (0.5% CORN OIL) DIET BEGINNING 7 D POST CARCINOGEN DOSE (STUDY DURATION: 20 WK), Route [Inhibitor]: ORAL, Species: RAT, Strain/Sex: SPRAGUE-DAWLEY/FEMALE, Target Tissue: Type of Lesion: MAMMARY GLAND: ADENOCARCINOMA, Dose [Carcinogen]: 5 MG ONCE, Promoter: NONE USED) 9/33 (27%), 11/32 (34%), -26%, not calculated. The “tumour outcome (control, treated, inhibition, significance)” value was 40%, 33%, 18%, not significant (Dose [Inhibitor]: 0, 0.005% IN LOW-FAT DIET BEGINNING 7 D POST CARCINOGEN TREATMENT (STUDY DURATION: 48 WK), Route [Inhibitor]: ORAL, Species: RAT, Strain/Sex: SPRAGUE-DAWLEY/FEMALE, Target Tissue: Type of Lesion: MAMMARY GLAND: ADENOCARCINOMA, Dose [Carcinogen]: 5 MG ONCE AT 50 D OF AGE, Promoter: NONE USED); 95%, 80%, 16%, not significant (Dose [Inhibitor]: 0, 0.1 UMOL 2/WK FOR 18 WK APPLIED 10-15 MIN PRIOR TO EACH PROMOTER DOSE (STUDY DURATION: 20 WK), Route [Inhibitor]: DERMAL, Species: MOUSE, Strain/Sex: CD-1/FEMALE, Target Tissue: Type of Lesion: SKIN: TUMOR, Dose [Carcinogen]: 200 NMOL ONCE, Promoter: 12-O-TETRADECANOYL-13-ACETATE, 16561-29-8); 100%, 95%, 5%, not significant (Dose [Inhibitor]: 0, 0.3 UMOL 2/WK FOR 18 WK APPLIED 10-15 MIN PRIOR TO EACH PROMOTER DOSE (STUDY DURATION: 20 WK), Route [Inhibitor]: DERMAL, Species: MOUSE, Strain/Sex: CD-1/FEMALE, Target Tissue: Type of Lesion: SKIN: TUMOR, Dose [Carcinogen]: 200 NMOL ONCE, Promoter: 12-O-TETRADECANOYL-13-ACETATE, 16561-29-8); 100%, 37%, 63%, p<0.001 (Dose [Inhibitor]: 0, 20 UG/ML IN DRINKING WATER 24 HR/D 3 D/WK FOR 26 WK BEGINNING AT 45 D OF AGE (STUDY DURATION: 26 WK), Route [Inhibitor]: ORAL, Species: RAT, Strain/Sex: SD/FEMALE, Target Tissue: Type of Lesion: MAMMARY GLAND: TUMOR, Dose [Carcinogen]: 10 UG/ANIMAL IN CORN OIL INTRAGASTRICALLY ON 45, 50, 55 D OF AGE); 44%, 41%, 7%, not significant and 59%, 38%, 36%, not significant (Dose [Inhibitor]: 0.004% DIET FOR 22 WK STARTING 3 D AFTER CARCINOGEN ADMINISTRATION (STUDY DURATION: 22 WK), Route [Inhibitor]: ORAL, Species: RAT, Strain/Sex: SPRAGUE-DAWLEY/FEMALE, Target Tissue: Type of Lesion: MAMMARY GLANDS: ADENOCARCINOMA, Dose [Carcinogen]: 5 MG ONCE, Promoter: NONE USED); 100%, 97%, 3%, not significant (Dose [Inhibitor]: 28 NMOL IN 0.2 ML ACETONE APPLIED 2/WK FOR 16 WK 5 HR BEFORE EACH PROMOTER APPLICATION BEGINNING 2 WK POST CARCINOGEN TR, Route [Inhibitor]: DERMAL, Species: MOUSE, Strain/Sex: CD-1/FEMALE, Target Tissue: Type of Lesion: SKIN: PAPILLOMA, Dose [Carcinogen]: 0.2 UMOL IN 0.2 ML ACETONE ONCE, Promoter: 12-O-TETRADECANOYLPHORBOL-13-ACETATE, 16561-29-8). For the same compound, the “tumour outcome (control, treated, inhibition, significance)” value is listed as 100%, 88%, 12%, not significant (Dose [Inhibitor]: 280 NMOL IN 0.2 ML ACETONE APPLIED 2/WK FOR 16 WK 5 HR BEFORE EACH PROMOTER APPLICATION BEGINNING 2 WK POST CARCINOGEN D, Route [Inhibitor]: DERMAL, Species: MOUSE, Strain/Sex: CD-1/FEMALE, Target Tissue: Type of Lesion: SKIN: PAPILLOMA, Dose [Carcinogen]: 0.2 UMOL IN 0.2 ML ACETONE ONCE, Promoter: 12-O-TETRADECANOYLPHORBOL-13-ACETATE, 16561-29-8) and 90%, 84%, 7%, not significant (Dose [Inhibitor]: 280 NMOL IN 0.2 ML ACETONE APPLIED 2/WK FOR 20 WK 2 HR BEFORE EACH PROMOTER APPLICATION BEGINNING 2 WK POST CARCINOGEN D, Route [Inhibitor]: DERMAL, Species: MOUSE, Strain/Sex: CD-1/FEMALE, Target Tissue: Type of Lesion: SKIN: PAPILLOMA, Dose [Carcinogen]: 0.2 UMOL IN 0.2 ML ACETONE ONCE, Promoter: 12-O-TETRADECANOYLPHORBOL-13-ACETATE, 16561-29-8).
